The assay has as its target T1, NEP (Rattus norvegicus, UniProt P07861).
T1 sequence (P07861 1-750): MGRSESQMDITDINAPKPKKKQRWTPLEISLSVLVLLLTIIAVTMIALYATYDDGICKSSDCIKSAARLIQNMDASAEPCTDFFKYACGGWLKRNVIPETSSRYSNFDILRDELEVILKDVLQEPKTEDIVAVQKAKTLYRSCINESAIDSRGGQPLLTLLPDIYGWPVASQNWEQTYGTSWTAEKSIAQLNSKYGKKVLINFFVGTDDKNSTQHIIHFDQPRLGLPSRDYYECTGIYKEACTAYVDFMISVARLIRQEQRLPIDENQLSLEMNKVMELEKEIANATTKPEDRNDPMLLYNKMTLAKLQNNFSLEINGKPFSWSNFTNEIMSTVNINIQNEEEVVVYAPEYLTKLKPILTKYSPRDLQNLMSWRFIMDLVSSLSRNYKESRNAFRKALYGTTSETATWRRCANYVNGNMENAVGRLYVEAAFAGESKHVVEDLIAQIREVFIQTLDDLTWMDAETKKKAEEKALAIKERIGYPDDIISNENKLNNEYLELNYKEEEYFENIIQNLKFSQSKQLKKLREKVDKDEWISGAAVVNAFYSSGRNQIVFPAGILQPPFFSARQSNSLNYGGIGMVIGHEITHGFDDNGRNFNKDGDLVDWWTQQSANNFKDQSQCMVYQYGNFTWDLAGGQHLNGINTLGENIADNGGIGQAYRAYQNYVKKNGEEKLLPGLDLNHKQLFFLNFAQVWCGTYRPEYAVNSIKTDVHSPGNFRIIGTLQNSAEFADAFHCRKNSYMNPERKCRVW
In words: NEP inhibition activity using rat renal cortex (Experiment A-1). Type of assay: biochemical. Also noted: membrane fraction prepared from rat renal cortex; from tissue; host or cells: rat renal cortex, membrane fraction (method of Booth and Kenny). The settings on record: rat renal cortex membrane fraction. The method, then: The NEP activity was determined by using a membrane fraction prepared from rat renal cortex in accordance with the method of Booth and Kenny (A Rapid Metod for the Purificaton of Microvilli from Rabbit Kidney., Andrew G. Booth and A. John Kenny, Biochem j., 1974, 142, […].).
The NEP activity was determined by the following manner in accordance with the method of Orlowsky and Wilk (Purification and Specificity of a Membrane-Bound Metalloendopeptidase from Bovine Pituitaries., Marian Orlowsky and Shrwin Wilk, Biochemistry, 1981, 20, 4942-4950.).
As a substrate, benzoyl-glycyl-arginyl-arginyl-2-naphthylamide (benzoyl-Gly-Arg-Arg-2-naphthylamide (Nova Biochem, Switzerland)) was used. In the presence of an NEP enzyme preparation and excessive leucine aminopeptidase (sigma chemical Co., U.S.A.), the liberated naphthylamine was made to undergo color development with first garnet (Sigma chemical Co., U.S.A.), followed by the measurement of the absorbance at a wavelength of 540 nm.
With respect to the NEP inhibition activity, the inhibitor was added to the experimental system as described above in such a manner as to give the final concentrations of 1, 3, 10, 30, 100, 300 and 1000 nM, an inhibition curve was prepared, and then the concentration at which 50% inhibition was achieved was taken as IC50.

The term IC50 denotes the point on the concentration scale where inhibition reaches its midpoint. Read a low IC50 as higher potency.

Each structure is given as a SMILES string.

The compound `CC[C@H](C)[C@H](S)C(=O)NC1CCc2ccccc2N(CC(=O)O)C1=O` (stereo partly drawn) [Example A-9, 1-Carboxymethyl-3-[(2S,3S)-2-mercapto-3-methylvarelylamino]-1H-[1]benzazepin-2-one] showed a 50% inhibitory concentration (IC50) of 13 nM.
Compound `CC[C@H](C)[C@H](S)C(=O)N[C@H]1CCc2ccccc2N(CC(=O)O)C1=O` [Example A-11, (S)-3-[(2S,3S)-2-Mercapto-3-methylvarelylamino]-1-carboxymethyl-2,3,4,5-tetrahydro-1H-[1]benzazepin-2-one] came in with an IC50 of 6.2 nM.

The values above are taken from US5679671A, “Amino acid derivative” (Eisai Co., Ltd., priority 1993, dated 1997).
